From paper PMC11878239, “Biochemical investigations using mass spectrometry to monitor JMJD6-catalysed hydroxylation of multi-lysine containing bromodomain-derived substrates” (RSC Chemical Biology, 2025)
“Also recorded” adds a separate entry of the source.

Target: T1, full-length His6-JMJD6 (Homo sapiens, UniProt Q6NYC1)
T1 construct: An enzyme mixture (10 μL) containing full-length His6-JMJD6 (5 μM; final concentration: 0.05 μM); made in house; host or cells: Escherichia coli BL21 (DE3), pET-28a(+) plasmid
Test: SPE-MS kinetics of JMJD6-catalysed lysyl hydroxylation (2OG, Fe(II), LAA, BRD-derived peptides)
Format: biochemical
Conditions: for tri- or higher-order hydroxylation: 0.05 μM JMJD6, SPE-MS time courses
Procedure: Recombinant human JMJD6 (full length with a N-terminal His6-tag) was produced in Escherichia coli BL21 (DE3) cells using a pET-28a(+) plasmid and purified by standard Ni(II)-affinity size-exclusion chromatography, as previously reported.[40] […] Purified JMJD6 was stored at −78 °C; fresh aliquots were used for all JMJD6 assays.
Peptides were used as 10 mM stock solutions in DMSO (Sigma-Aldrich; BioUltra grade).
Assay samples were aspirated under vacuum for 0.4 s, then loaded onto a C4 solid phase extraction (SPE) cartridge. After loading, the C4 SPE cartridge was washed with 0.1%v/v aqueous formic acid to remove non-volatile buffer salts (5 s, 1.5 mL min^−1). The peptide was eluted from the SPE cartridge with 0.1%v/v aqueous formic acid in 75/25v/v acetonitrile/water into the mass spectrometer (5 s, 1.6 mL min^−1) and the SPE cartridge re-equilibrated with 0.1%v/v aqueous formic acid (1 s, 1.25 mL min^−1).
Peaks corresponding to the m/z +5 charge states of the BRD-derived substrate peptide and the hydroxylated product peptides were extracted from the ion chromatogram and integrated using RapidFire Integrator 4.3.0 (Agilent). Peak area data were exported into Microsoft Excel and used to calculate the relative abundance of the mono-hydroxylated product peptide using the following equation: […]
The concentration of the mono-hydroxylated product peptide was calculated by multiplying the %-fraction of the mono-hydroxylated product peptide by the initial concentration of the substrate peptide employed in the assay. Initial reaction velocities were then calculated and fitted to a Michaelis–Menten plot using nonlinear regression (GraphPad Prism 5).

apparent maximum velocity v^app max (BRD peptide substrate varied, 0.05 μM full-length His6-JMJD6, 2OG 200 μM, FAS 2 μM, LAA 100 μM, 50 mM Tris pH 7.5, ambient temperature, mono-hydroxylation, substrate inhibition fit, mean ± SD n = 3): 5.8 ± 1.2 nM/s
K m (BRD peptide substrate varied, 0.05 μM full-length His6-JMJD6, 2OG 200 μM, FAS 2 μM, LAA 100 μM, 50 mM Tris pH 7.5, ambient temperature, substrate inhibition fit, mean ± SD n = 3, read-out: Michaelis constant Km (K^app m)): 0.62 ± 0.26 µM
turnover number kcat (k^app cat) (BRD peptide substrate varied, 0.05 μM full-length His6-JMJD6, 2OG 200 μM, pH 7.5, SPE-MS, calculated from v^app max assuming active JMJD6 = total enzyme, n = 3): 0.12 ± 0.02 s⁻¹
catalytic efficiency kcat/Km (BRD peptide substrate varied, 0.05 μM full-length His6-JMJD6, 2OG 200 μM, pH 7.5, SPE-MS, n = 3): 190000 ± 80000 M⁻¹ s⁻¹
relative abundance of mono-hydroxylated peptide at plateau (absence of LAA, after ~10 min, 50 nM JMJD6, 2OG 200 μM, FAS 2 μM, peptide 2 μM, pH 7.5, n = 3): ~15%
substrate inhibition of JMJD6 catalysis (high substrate concentrations (>2 μM)): inhibit JMJD6 catalysis
Sequence: LAELQEQLKAVHEQLAALSQPQQNKPKKKEKDKKEKKKEK [BRD4_511–550, 40-mer peptide fragment derived from human BRD4, JMJD6 substrate, prepared by SPPS]
tri- or higher-order hydroxylation (ambient temperature): negligible levels of BRD4_511–550 hydroxylations beyond mono-hydroxylation
tri- or higher-order hydroxylation (ambient temperature, listed as BRD4511-550): No evidence for triple; also recorded: No evidence for triple (or higher order)
